From the supplement of paper PMC10307832

Legend:
Assay in all cases: relative viability (nuclei count vs DMSO), 5 days (fraction); higher = more cells survive
XMD13-2 + Tozasertib = compound: C1CC1C(=O)NC2=NNC3=C2C=CC(=C3)C4=CC(=CC=C4)C(=O)NC5CC5 [XMD13-2] + Cc1cc(Nc2cc(N3CCN(C)CC3)nc(Sc3ccc(NC(=O)C4CC4)cc3)n2)n[nH]1 [Tozasertib] (partner 0.1 µM)
Outline: (§1)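 For relative viability, nuclei counts in treated wells were divided by those in vehicle wells. Lung cancer cell lines had been pin-tool dosed in 1536-well plates the day after seeding and cultured for 5 days, then fixed and stained in one step (final 0.05% Triton X-100, 1% formaldehyde, 1 ug/ml Hoechst) and imaged at 4×. Doses were one drug alone or a fixed anchor-drug dose plus five library-drug doses (not always all listed) in √10 steps, and values are duplicate-plate medians.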

ALW-II-49-7 + Bortezomib = compound: Cc1ccc(C(=O)Nc2cccc(C(F)(F)F)c2)cc1Nc1cncc(C(N)=O)c1 [ALW-II-49-7] + CC(C)C[C@H](NC(=O)[C@H](Cc1ccccc1)NC(=O)c1cnccn1)B(O)O [Bortezomib] (partner 0.002 µM)
Outline: as §1

ALW-II-49-7 + Crizotinib = compound: Cc1ccc(C(=O)Nc2cccc(C(F)(F)F)c2)cc1Nc1cncc(C(N)=O)c1 [ALW-II-49-7] + C[C@@H](Oc1cc(-c2cnn(C3CCNCC3)c2)cnc1N)c1c(Cl)ccc(F)c1Cl [Crizotinib] (partner 1 µM)
Outline: as §1

Dasatinib + Vorinostat = compound: Cc1nc(Nc2ncc(C(=O)Nc3c(C)cccc3Cl)s2)cc(N2CCN(CCO)CC2)n1 [Dasatinib] + O=C(CCCCCCC(=O)Nc1ccccc1)NO [Vorinostat] (partner 1 µM)
Outline: as §1

Cell Line	relative viability (XMD13-2 + Tozasertib; first compound 0.05 µM)	relative viability (XMD13-2 + Tozasertib; first compound 0.1581 µM)	relative viability (XMD13-2 + Tozasertib; first compound 0.5 µM)	relative viability (XMD13-2 + Tozasertib; first compound 1.581 µM)	relative viability (XMD13-2 + Tozasertib; first compound 5 µM)	relative viability (ALW-II-49-7 + Bortezomib; first compound 0.08 µM)	relative viability (ALW-II-49-7 + Bortezomib; first compound 0.253 µM)	relative viability (ALW-II-49-7 + Bortezomib; first compound 0.8 µM)	relative viability (ALW-II-49-7 + Bortezomib; first compound 8 µM)	relative viability (ALW-II-49-7 + Crizotinib; first compound 0.08 µM)	relative viability (ALW-II-49-7 + Crizotinib; first compound 0.253 µM)	relative viability (ALW-II-49-7 + Crizotinib; first compound 0.8 µM)	relative viability (ALW-II-49-7 + Crizotinib; first compound 2.53 µM)	relative viability (ALW-II-49-7 + Crizotinib; first compound 8 µM)	relative viability (Dasatinib + Vorinostat; first compound 0.005 µM)	relative viability (Dasatinib + Vorinostat; first compound 0.01581 µM)	relative viability (Dasatinib + Vorinostat; first compound 0.05 µM)	relative viability (Dasatinib + Vorinostat; first compound 0.1581 µM)	relative viability (Dasatinib + Vorinostat; first compound 0.5 µM)	relative viability (ALW-II-49-7 + Bortezomib; first compound 2.53 µM)
HCC-78	0.362	0.436	0.372	0.346	0.282	0.463	0.434	0.405	0.491	0.335	0.321	0.32	0.297	0.371	0.373	0.354	0.324	0.336	0.219	
HCC-366	0.0882	0.0936	0.127	0.115	0.116	1.1	0.578	1.02	1.13	0.777	0.592	0.382	0.682	0.609	0.377	0.225	0.312	0.238	0.22	1.14
HCC-827	0.428	0.409	0.427	0.401	0.386	1.13	1.03	1.03	1.03	0.898	0.913	0.886	0.941	0.906	0.787	0.744	0.742	0.615	0.157	1.1
HOP-62	0.363	0.418	0.399	0.393	0.271	0.852	1.06	1.02	0.965	0.855	1.05	1.02	0.563	0.817	0.738	0.606	0.642	0.293	0.132	0.369
IA-LM						1.12	0.621	0.509	0.161	0.825	0.754	0.745	0.346	0.18	1.13	0.89	1.03	0.691	0.538	0.217
LC-2-ad	0.519	0.528	0.436	0.41	0.45	1.06	0.997	1.01	0.983	0.354	0.461	0.476	0.378	0.393	0.723	0.675	0.75	0.493	0.337	1.05
LCLC-97TM1	0.235	0.198	0.209	0.194	0.104	0.354	0.677	0.651	0.218	0.609	0.262	0.532	0.313	0.297	0.91	0.829	0.905	0.523	0.35	
LK-2	0.187	0.169	0.173	0.18	0.149					0.216	0.211	0.215	0.262	0.226	0.314	0.288	0.21	0.19	0.148	
NCI-H358	0.126	0.121	0.102	0.114	0.0991					0.616	0.412	0.486	0.435	0.539	0.513	0.47	0.388	0.15	0.128	
NCI-H522	0.531	0.651	0.593	0.483	0.412										1.03	0.822	0.962	0.788	0.84	
NCI-H1299						1.03	1.02	1.02	0.853	0.972	0.954	0.963	0.861	0.736						0.98
NCI-H1395	0.716	0.735	0.796	0.787	0.807										0.722	0.762	0.515	0.291	0.387	
NCI-H1563						0.922	0.885	0.877	0.753	0.927	0.842	0.858	0.774	0.867						0.842
NCI-H1623	0.5	0.456	0.437	0.42	0.483															
NCI-H1648	0.5	0.314	0.608	0.51	0.342										0.374	0.481	0.606	0.266	0.179	
NCI-H1703						0.287	0.348	0.298	0.167	0.859	0.713	0.554	0.309	0.211						0.278
NCI-H1792						0.745	0.878	0.82	0.95	0.795	0.866	0.819	0.827	0.878						0.922
NCI-H1793	0.432		0.334	0.379	0.322										0.56	0.571	0.46	0.357	0.344	
NCI-H1944	0.275	0.243	0.229	0.239	0.221					1.14	0.981	1.06	1.09	1.12	0.573	0.527	0.452	0.196	0.169	
NCI-H2170	0.646	0.737	0.774	0.672	0.719					1.3	1.12	1.3	1.21	1.09	0.797	0.72	0.743	0.467	0.334	
NCI-H2342	0.547	0.421	0.525	0.603	0.575										0.734	0.654	0.603	0.458	0.339	
SK-MES-1	0.998	0.879	0.919	0.804	0.72					0.885	0.979	0.948	0.926	0.7	1.19	0.961	0.977	0.503	0.206	
SW 900	0.62	0.573	0.506	0.473	0.533										0.356	0.282	0.289	0.163	0.192	
